Measurements reported in patent US20220315554A1, “COMPOUNDS COMPRISING A […] LIGAND AND USE THEREOF” (priority 2019, published 2022).

Key:
[1] = molecular target: T1, proteases (Homo sapiens, UniProt P03956); assay: biochemical; settings: Matrix metalloprotease1; reference at 1 μM
T1 construct: BPS Biosciences (contract assay)

[2] = molecular target: T2, proteases (Homo sapiens, UniProt P08253); assay: biochemical; settings: Matrix metalloprotease 2; reference at 100 nM
T2 construct: BPS Biosciences (contract assay)

[3] = molecular target: T3, proteases (Homo sapiens, UniProt P14780, Q279R); assay: biochemical; settings: 0.1 µM
T3 construct: BPS Biosciences (contract assay)

[4] = molecular target: T4, proteases (Homo sapiens, UniProt P42574); assay: biochemical; settings: Caspase-3; reference at 100 nM
T4 construct: BPS Biosciences (contract assay)

[5] = molecular target: T5, proteases (Homo sapiens, UniProt P55210); assay: biochemical; settings: Caspase-7; reference at 1 μM
T5 construct: BPS Biosciences (contract assay)

[6] = molecular target: T6, proteases (Homo sapiens, UniProt Q9UBX1); assay: biochemical; settings: Cathepsin F; reference at 1 μM
T6 construct: BPS Biosciences (contract assay)

[7] = test system: HEK-FAP tumors; assay: Efficacy study HEK-FAP tumors; settings: throughout the study
[8] = test system: Sarc4809 PDX tumors; assay: Efficacy study sarcoma Sarc4809 PDX model; settings: throughout the study
[9] = molecular target: T7, proteases (Homo sapiens, UniProt O60911); assay: biochemical; settings: Cathepsin V; reference at 100 nM
T7 construct: BPS Biosciences (contract assay)

[10] = molecular target: T8, proteases (Homo sapiens, UniProt P07711); assay: biochemical; settings: Cathepsin L; reference at 1 μM
T8 construct: BPS Biosciences (contract assay)

[11] = molecular target: proteases (Homo sapiens, UniProt P07858); assay: biochemical; settings: Cathepsin B; reference at 100 nM
[12] = molecular target: T9, proteases (Homo sapiens, UniProt P25774); assay: biochemical; settings: Cathepsin S; reference at 100 nM
T9 construct: BPS Biosciences (contract assay)

[13] = molecular target: alpha 1A (h) (Homo sapiens, UniProt P35348); settings: read-out: Ki Ref, reference compound (positive control)
[14] = Plasma stability assay, human plasma; assay type: in vitro ADME; settings: 24 h incubation, 37° C., read-out: % intact compound remaining after incubation, Human plasma
[15] = molecular target: T10, FAP-expressing human WI-38 fibroblasts (Homo sapiens, UniProt Q12884); assay: Competitive FACS binding assay; settings: pIC50 Category (FACS), competition with 3 nM Cy5-labeled compound, WI-38 fibroblasts, 4° C., 1 hour
T10 construct: FAP-expressing human WI-38 fibroblasts (ECACC) were cultured in EMEM; host or cells: WI-38 human fibroblasts
T10 sequence (Q12884 1-760): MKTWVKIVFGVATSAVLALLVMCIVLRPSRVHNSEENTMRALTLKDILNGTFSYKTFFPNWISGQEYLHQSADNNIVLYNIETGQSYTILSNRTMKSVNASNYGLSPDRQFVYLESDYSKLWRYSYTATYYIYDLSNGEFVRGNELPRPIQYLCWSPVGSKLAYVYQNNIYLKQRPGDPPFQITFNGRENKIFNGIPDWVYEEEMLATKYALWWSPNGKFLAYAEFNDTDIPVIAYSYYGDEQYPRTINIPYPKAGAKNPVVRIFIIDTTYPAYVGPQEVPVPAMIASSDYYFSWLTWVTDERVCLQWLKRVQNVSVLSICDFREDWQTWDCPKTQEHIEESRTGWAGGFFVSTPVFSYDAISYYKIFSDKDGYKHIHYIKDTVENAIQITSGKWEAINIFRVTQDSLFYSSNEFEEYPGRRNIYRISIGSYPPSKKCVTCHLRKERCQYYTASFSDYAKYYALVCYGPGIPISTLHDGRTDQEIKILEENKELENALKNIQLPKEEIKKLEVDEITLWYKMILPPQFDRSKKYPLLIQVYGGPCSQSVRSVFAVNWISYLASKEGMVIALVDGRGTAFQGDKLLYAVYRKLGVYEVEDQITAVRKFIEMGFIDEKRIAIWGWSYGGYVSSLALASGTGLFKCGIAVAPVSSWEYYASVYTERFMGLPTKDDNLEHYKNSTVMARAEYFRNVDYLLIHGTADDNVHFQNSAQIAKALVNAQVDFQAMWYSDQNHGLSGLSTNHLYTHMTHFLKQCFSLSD
Description: Cells were analyzed in an Attune NxT flow cytometer. […]

[16] = molecular target: T11, Human recombinant FAP (Homo sapiens, UniProt Q12884); assay: Surface plasmon resonance (Biacore) assay; assay type: binding
T11 sequence (Q12884 1-760): T10 sequence (Q12884 1-760)

[17] = molecular target: T12, recombinant human PREP (Homo sapiens, UniProt P48147); assay: PREP protease activity assay; assay type: biochemical
T12 construct: purchased R&D systems 4308-SE
T12 sequence (P48147 1-710): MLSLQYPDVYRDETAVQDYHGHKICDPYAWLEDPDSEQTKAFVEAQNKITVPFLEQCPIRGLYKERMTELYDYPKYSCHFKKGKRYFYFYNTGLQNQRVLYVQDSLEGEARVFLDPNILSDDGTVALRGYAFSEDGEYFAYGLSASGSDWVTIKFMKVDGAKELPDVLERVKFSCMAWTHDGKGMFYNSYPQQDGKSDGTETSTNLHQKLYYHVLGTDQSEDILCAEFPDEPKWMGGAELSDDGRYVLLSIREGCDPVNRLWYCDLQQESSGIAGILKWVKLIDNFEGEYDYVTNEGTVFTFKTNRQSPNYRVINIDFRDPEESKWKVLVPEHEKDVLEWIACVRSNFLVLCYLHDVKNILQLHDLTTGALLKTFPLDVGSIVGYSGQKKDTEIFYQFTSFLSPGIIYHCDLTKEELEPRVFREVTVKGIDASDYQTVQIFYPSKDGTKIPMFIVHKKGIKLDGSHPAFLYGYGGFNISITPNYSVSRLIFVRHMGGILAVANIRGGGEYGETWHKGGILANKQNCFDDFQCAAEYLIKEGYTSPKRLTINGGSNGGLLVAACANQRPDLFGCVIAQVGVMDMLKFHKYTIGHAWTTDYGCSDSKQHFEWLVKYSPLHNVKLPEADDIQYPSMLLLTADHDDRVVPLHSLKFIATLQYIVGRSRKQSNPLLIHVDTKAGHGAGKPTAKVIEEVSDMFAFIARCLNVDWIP

[18] = molecular target: T13, Recombinant human DPP4 (Homo sapiens, UniProt P27487); assay: DPP4 protease activity assay; assay type: biochemical
T13 construct: purchased R&D systems 9168-SE

[19] = test system: Na+ channel (site 2); assay: SafetyScreen44: Na+ channel (site 2) (antagonist radioligand); assay type: binding; settings: 10 μM
[20] = molecular target: T14, proteases (Hepatitis C virus genotype 1a, UniProt P27958, D1194V); assay: biochemical
T14 construct: BPS Biosciences (contract assay)

[21] = molecular target: T15, proteases (Hepatitis C virus genotype 1b, UniProt P26663); assay: biochemical; settings: read-out: Percentage inhibition (%)
T15 construct: BPS Biosciences (contract assay)

[22] = molecular target: T16, proteases (Hepatitis C virus genotype 1b, UniProt P26663, D1194V); assay: biochemical; settings: read-out: Percentage inhibition (%)
T16 construct: BPS Biosciences (contract assay)

[23] = molecular target: T17, proteases (Hepatitis C virus genotype 1b, UniProt P26663, R1181K); assay: biochemical
T17 construct: BPS Biosciences (contract assay)

[24] = molecular target: T18, proteases (Hepatitis C virus genotype 1b, UniProt P26663, R1181Q); assay: biochemical; settings: read-out: Percentage inhibition (%)
T18 construct: BPS Biosciences (contract assay)

[25] = test system: BZD (central); settings: 10 μM
[26] = test system: NMDA; settings: 10 μM
[27] = test system: Ca2+ channel (L, dihydropyridine site); settings: 10 μM
[28] = test system: KV channel; settings: 10 μM
[29] = in vitro; settings: rat, plasma
[30] = in vivo; settings: rat, plasma, intravenous; for Vd: rat plasma
[31] = molecular target: hERG potassium channel (Homo sapiens, UniProt Q12809); assay: in vitro
[32] = molecular target: AR (h) (Homo sapiens, UniProt P10275, T878A); assay: biochemical; settings: read-out: % Inhibition of Specific Binding
[33] = molecular target: T11, Human recombinant FAP; assay: FRET-based FAP protease activity assay; assay type: biochemical; set-up: purchased R&D systems 3715-SE; settings: pIC50 Category (Activity), recombinant human FAP, FRET substrate, 37° C.
[34] = molecular target: T19, proteases (Hepatitis C virus genotype 2a, UniProt Q99IB8); assay: biochemical; settings: serine protease NS3 (a.a. 3-181) from Hepatitis C virus genotype 2a; reference at 100 nM
T19 construct: BPS Biosciences (contract assay)

[35] = molecular target: 5-HT2B (h) (Homo sapiens, UniProt P41595); settings: read-out: Ki Ref, reference compound (positive control)
[36] = molecular target: T20, proteases (Homo sapiens, UniProt P55212); assay: biochemical; settings: Caspase-6; reference at 1 μM
T20 construct: BPS Biosciences (contract assay)

[37] = molecular target: T21, proteases (Homo sapiens, UniProt Q14790); assay: biochemical; settings: Caspase-8; reference at 100 nM
T21 construct: BPS Biosciences (contract assay)

[38] = read-out: Percentage inhibition (%)

## COc1ccc(S(=O)(=O)N(CC(=O)NO)CC(C)C)cc1 [NNGH]
[1]
  Percentage inhibition (%) Reference: 87%
[2]
  Percentage inhibition (%) Reference: 95%
[3]
  Percentage inhibition (%) Reference: 92%

## COC[C@@H]1CCCN1S(=O)(=O)c1ccc2c(c1)C(=O)C(=O)N2 [Caspase 3/7 Inhibitor I]
[4]
  Percentage inhibition (%) Reference: 89%
[5]
  Percentage inhibition (%) Reference: 92%

## Cystatin C
[6]
  Percentage inhibition (%) Reference: 74%

## CCCCCC(=O)N[C@H]1CSCc2cc(CSCCNC(=O)CN3CCN(CC(=O)O)CCN(CC(=O)O)CCN(CC(=O)O)CC3)cc(c2)CSC[C@@H](C(=O)O)NC(=O)[C@H](Cc2ccccc2)NC(=O)[C@H](CCC(N)=O)NC(=O)[C@H]([C@@H](C)O)NC(=O)[C@@H]2CCCN2C(=O)[C@@H]2CCCN2C1=O [^177Lu-3BP-3554, metal not drawn]
[7]
  treatment-related body weight loss: No treatment-related body weight loss
[8]
  treatment-related body weight loss (BWL): No treatment-related body weight loss

## CC(C)C[C@H](NC(=O)[C@H]1O[C@@H]1C(=O)O)C(=O)NCCCCN=C(N)N [E-64]
[9]
  Percentage inhibition (%) Reference: 83%
[10]
  Percentage inhibition (%) Reference: 97%
[11]
  Percentage inhibition (%) Reference: 97%
[12]
  Percentage inhibition (%) Reference: 91%

## COc1cccc(OC)c1OCCNCC1COc2ccccc2O1 (stereo not drawn) [WB 4101]
[13]
  Ki: 0.24 nM

## CCCCCC(=O)N[C@H]1CSCc2cc(CSCCNC(=O)CN3CCN(CC(=O)O)CCN(CC(=O)O)CCN(CC(=O)O)CC3)cc(c2)CSC[C@@H](C(=O)O)NC(=O)[C@H](Cc2ccccc2)NC(=O)[C@H](CCC(N)=O)NC(=O)[C@H]([C@@H](C)O)NC(=O)[C@@H]2CCCN2C(=O)[C@@H]2CCCN2C1=O [3BP-3554, Hex-[Cys(tMeBn(DOTA-AET))-Pro-Pro-Thr-Gln-Phe-Cys]-OH]
[14]
  remaining at 24 h, 9.8 µM: 100%
[15]
  IC50: < 10 nM
[16]
  Kd: < 10 nM
[17]
  IC50: > 1000 nM
[18]
  IC50: > 1000 nM
[19]
  % Inhibition of Specific Binding: 14%
[20]; [38]
  inhibition at 1 µM: -39%
[21]
  inhibition at 1 µM: -5%
  inhibition at 10 µM: -9%
[22]
  inhibition at 1 µM: -2%
  inhibition at 10 µM: -17%
[23]; [38]
  inhibition at 1 µM: -1%
  inhibition at 10 µM: 0%
[24]
  inhibition at 1 µM: 0%
  inhibition at 10 µM: -5%
[25]
  % Inhibition of Specific Binding: 5%
[26]
  % Inhibition of Specific Binding: 1%
[27]
  % Inhibition of Specific Binding: 54%
[28]
  % Inhibition of Specific Binding: 4%
[29]
  remaining at 24 h, 9.8 µM: 100%
[30]; 2 nmol/kg
  AUC(0-inf): 0.0081 µM·h
  C0: 10.3 nM
  clearance: 4.13 mL/min/kg
  half-life: 54 min
[30]; 2 nmol/kg, Vss, 2 nmol/kg
  Vd: 0.28 L/kg
[30]; 2 nmol/kg, Vz
  Vd: 0.32 L/kg
[30]; 20 nmol/kg
  AUC(0-inf): 0.069 µM·h
  C0: 111 nM
  clearance: 4.85 mL/min/kg
  half-life: 50 min
[30]; 20 nmol/kg, Vss, 20 nmol/kg
  Vd: 0.3 L/kg
[30]; 20 nmol/kg, Vz
  Vd: 0.35 L/kg
[30]; 200 nmol/kg
  AUC(0-inf): 0.726 µM·h
  C0: 1480 nM
  clearance: 4.58 mL/min/kg
  half-life: 63 min
[30]; 200 nmol/kg, Vss, 200 nmol/kg
  Vd: 0.17 L/kg
[30]; 200 nmol/kg, Vz
  Vd: 0.42 L/kg
[31]
  inhibition at 10 µM: 6%
[32]
  inhibition at 10 µM: -5%
[33]
  IC50: < 10 nM

## CC(C)(C)OC(=O)N[C@H]1CCCCC/C=C\[C@@H]2C[C@@]2(C(=O)NS(=O)(=O)C2CC2)NC(=O)[C@@H]2C[C@@H](OC(=O)N3Cc4cccc(F)c4C3)CN2C1=O [Denoprevir]
[20]; serine protease NS3 (a.a. 3-181) from Hepatitis C virus genotype 1a (mutant D168 V), reference at 100 nM
  Percentage inhibition (%) Reference: 94%
[23]; serine protease NS3 (a.a. 3-181) from Hepatitis C virus genotype 1b (mutant R155K), reference at 100 nM
  Percentage inhibition (%) Reference: 90%
[34]
  Percentage inhibition (%) Reference: 98%

## COc1cc(CC(C)N)c(OC)cc1I (racemic) [(±)DOI]
[35]
  Ki: 4.2 nM

## Caspase 8 Inhibitor I
[36]
  Percentage inhibition (%) Reference: 94%
[37]
  Percentage inhibition (%) Reference: 87%
